Test results reported in publication PMC7459852, “Identification of 6-(piperazin-1-yl)-1,3,5-triazine as a chemical scaffold with broad anti-schistosomal activities” (Wellcome Open Research, 2020).

Columns and labels:
[1] = MTT cytotoxicity assay on HepG2 cells; assay type: cell-based, Human; conditions: human, HepG2 cells, MTT, 24 h; three dose response titrations (200 - 1 µM)
Description: Compound cytotoxicity on Human Hepatocyte Carcinoma (HepG2) cells (85011430, Sigma Aldrich) was elucidated by the MTT (3-(4,5-dimethylthiazol-2-yl)-2,5-diphenyltetrazolium bromide) tetrazolium reduction assay as previously described, [28], [50]. Briefly, HepG2 cells were seeded at a density of 20,000 per well in 96-well black, clear bottom falcon plate in modified BME medium (50 μl; containing 1% antibiotic/mycotic (Sigma-Aldrich, Gillingham, UK), 1% 200 mM L-glutammine (Gibco, Paisley, UK), 1% MEM non-essential amino acid solution (Gibco, Paisley, UK), and 10% fetal bovine serum (Gibco, Paisley, UK)). HepG2 plates seeded for cytotoxicity screens were treated with compounds 24 h post-seeding. Each compound was tested at 200, 100, 75, 50, 20, 10 and 1 µM; each concentration was assayed in triplicate. Blank wells (no cells), as well as positive (1% v/v Triton X-100, X100, Sigma-Aldrich) and negative (1.25% v/v DMSO or media only) controls, were included in each plate. After addition of compounds, each plate was then incubated for a further 20 h before application of MTT reagent for assessment of compound cytotoxicity (4 h incubation with MTT for a total 24 h cell-drug incubation). The absorbance reading at 570 nm was measured with a POLARstar Omega (BMG Labtech, UK) microtiter plate reader. Dose response curves were generated in GraphPad Prism 7.02 based on the corrected average absorbance of the three replicates for each concentration point.

S. mansoni adult worms = test: Adult worm screens (WormassayGP2 motility, egg count); assay type: cell-based; conditions: Schistosoma mansoni, two dose response titrations (100 – 3.13 µM)

EC50 (S. mansoni adult worms): 11 µM
Compound: c1ccc(Nc2nc(N3CCCC3)nc(N3CCNCC3)n2)cc1 [Compound 7]
CC50 at 24 h [1]: 13.7 µM
